Test results published in patent US5512576A, “2-substituted 1,2,5,-thiadiazolidin-3-one 1,1-dioxides and compositions and method of use thereof” (Sterling Winthrop Inc., priority 1994, dated 1996).

Biological target: T1, human leukocyte elastase (Homo sapiens, UniProt P08246)
T1 sequence (P08246 30-267): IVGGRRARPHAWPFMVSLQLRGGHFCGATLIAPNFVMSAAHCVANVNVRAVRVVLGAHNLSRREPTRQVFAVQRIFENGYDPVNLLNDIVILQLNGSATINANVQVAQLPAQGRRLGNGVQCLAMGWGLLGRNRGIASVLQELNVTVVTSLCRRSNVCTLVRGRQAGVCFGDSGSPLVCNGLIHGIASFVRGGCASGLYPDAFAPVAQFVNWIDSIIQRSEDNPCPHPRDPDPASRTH
Assay: human leukocyte elastase (HLE) inhibition, in vitro, substrate MeOSuc-Ala-Ala-Pro-Val-pNA
Format: biochemical
Conditions: pH 7.8 at 25° C., absorbance at 410 nm, read-out: Ki, human leukocyte elastase inhibitory activity
Protocol: The test compound (inhibitor) is dissolved in DMSO in a vial to produce an inhibitor stock solution which has a concentration in the range of 200-1000 μM. The inhibitor stock solution is diluted (1:4, 1:16 and 1:64) into assay vials (vials 1, 2 and 3 respectively) containing 2.4 mL of buffer solution (50 mM N- 2-hydroxyethyl!piperazine-N'- 2-ethanesulfonic acid!/NaOH, 500 mM NaCl, pH 7.8 at 25° C.) and DMSO is added so that the total volume in each vial is 3.2 mL. 70 μL, 50 μL, 35 μL and 25 μL of inhibitor from assay vial 1 is placed into the first four wells of a 96-well microtiter plate and each well is made up to 90 μL total volume with the addition of a 25% DMSO/buffer solution. […]
The 96-well microtiter plate is placed into a Microplate Reader #89815A spectrophotometer and 110 BL of the enzyme solution (prepared as follows: a mixture of 20 mL of buffer solution and 20 mg of bovine serum albumen is gently vortexed in a scintillation vial and 5 BL HLE stock solution (1 mg/mL dissolved in deionized water) is added) is added simultaneously to each of the 16 wells. Each of the solutions in the wells is throughly mixed and then the time-dependent absorbance data is collected at an absorbance of 410 nm until the assay is complete. […]
A plot of the absorbance versus time data thus obtained affords progress curves the final slope of which is equal to the final steady-state velocities (VF). […]

Ki: 0.79 nM
Compound: CC(C)CCC1C(=O)N(COc2cc(=O)n3ccccc3n2)S(=O)(=O)N1C (stereo not shown) [Example 1(j), 2-(4-oxo-4-H-pyrido 1,2-a!pyrimidin-2-yl-oxymethyl)-4-(3-methylbutyl)-5-methyl-1,2,5-thiadiazolidin-3-one 1,1-dioxide]
